# Laboratory results as given in patent publication US8273775B2, “Non-steroidal brassinosteroid mimetic” (priority 2006, dated 2012).
# Peptide text beside a SMILES is read from it. * marks the point of attachment. Cbz = O=C(OCc1ccccc1)*
# Key:
# [1] = test system: BR-biosynthetic, BR signaling and BR-induced genes; assay: Real time PCR of BR pathway genes; type: in vivo, Arabidopsis thaliana; conditions: 30 μM, 2 hours
# Method: FIG. 7: Q-PCR analysis of genes involved in BR biosynthesis. WT Arabidopsis plants were treated with abrasin (indicated as I5) for 2 hours at a concentration of 30 μM and/or with CHX at a concentration of 30 μM and RNA was extracted from whole plants.
# (§1) FIG. 8: A: Western Blot analysis of the BES1 protein in 35S:BES1:GFP plants treated with BL and abrasin (indicated as I5 throughout the figure) (A); MG132 with BL or abrasin (B); a time course with abrasin (C) and a concentration gradient with abrasin (D). B: Abrasin and BL induce similar transcriptional regulation of the BR pathway.
# RNA was extracted with the RNeasy kit. Poly(dT) cDNA was prepared from […] of total RNA with Superscript III reverse transcriptase (Invitrogen) and quantified on an LightCycler 480 apparatus (Roche) with the SYBR Green I Master kit (Roche) according to the manufacturer's instructions. Target quantifications were performed with specific primer pairs designed with the Beacon Designer 4.0 (Premier Biosoft International). All PCRs were performed in triplicate.
# The primers used to quantify gene expression levels were for BAS 1: 5′-[…]-3′ and 5′-[…]-3′; BR6Ox1: 5′-TGGCCAATCTTTGGCGAA-3′ and 5′-[…]-3′; BR6Ox2: 5′-[…]-3′ and 5′-[…]-3′; BRI1: 5′-[…]-3′ and 5′-[…]-3′; CPD: 5′-[…]-3′ and 5′-[…]-3′; DWF4: 5′-[…]-3′ and 5′-[…]-3′ ROT3: 5′-ATTGGCGCGTTCCTCAGAT-3′ and 5′-[…]-3′; BES1: 5′-[…]-3′ and 5′-[…]-3′; BIN2: 5′-[…]-3′ and 5′-[…]-3′; BSU 1: 5′-[…]-3′ and 5′-[…]-3′; BZR1: 5′-[…]-3′ and 5′-[…]-3′; CDKA1; 1: 5′-[…]-3′ and 5′-[…]-3′; EEF1α: 5′-[…]-3′ and 5′-[…]-3′; BKI1: 5′-GCTCCGGCGTCGATGA-3′ and 5′-[…]-3′.
# [2] = test system: BES1 protein in 35S:BES1:GFP plants; assay: Western blot analysis of BES1 phosphorylation state; type: in vivo, Arabidopsis thaliana
# Method: as §1
# For protein extraction, six-day-old seedlings were grown under standard conditions as described earlier on solid medium. Plants were next soaked in liquid MS-medium supplemented with the indicated compounds (concentrations and time periods as indicated in figures). Subsequently, plants were frozen in liquid nitrogen, ground and homogenized in ice-cold homogenization buffer (25 mM Tris-HCl (pH 8), 5 mM EDTA, 1 mM β-Mercapto-ethanol, 15 mM MgCl—2, 85 mM NaCl, 0.1% Tween 20, 1 protease inhibitor tablet/50 ml, Complete (Roche diagnostics, Belgium)). The homogenate was centrifuged twice (5 min, 14.000 rpm, 4° C.) in an Eppendorf Centrifuge 5417. Loading buffer was added, the samples were heated for 10 min at 95° C. and centrifuged. The samples were separated on a 12% acrylamide gel or a 4-20% gradient pre-cast gel (Bio-Rad) and blotted on nitrocellulose membranes (Hybond-C super, GE-Biosciences, UK) in 190 mM glycine and 25 mM Tris-Hcl using a mini-blotting system (Bio-Rad, USA) for 1 h. Membranes were blocked overnight at 4° C. in phosphate buffer with 0.1% Tween 20 and 5% skim milk (BD Difco, USA). For immunodetection, anti-BES1 antibodies at 1:2000 dilution and anti-GFP antibodies at 1:1000 dilution were used as primary antibody. As secondary antibody, anti-rat and anti-rabbit were used at 1:10.000 dilution. The proteins were detected by chemiluminescence (Perkin-Elmer, USA).
# [3] = test system: Arabidopsis thaliana seedlings; assay: Lateral root formation / root elongation of seedlings on agar plates; type: in vivo; conditions: structural variants of abrasin
# Method: FIG. 3: (A) Phenotypic characterization. WT plants were grown under standard conditions on agar plates. […] Left panel: control plant. Middle panel: abrasin treated plant. Right panel: BL treated plant. (B) Dose response measurements of abrasin using lateral root formation as an indicator of brassinosteroid like activity. Error bars represent standard error of the mean. […] Osram) at 22° C. Three days after germination compounds were added to the 96-well plates at a final concentration of 50 μM. Plants were screened six days after germination for brassinosteroid-related phenotypes. For further phenotypical analysis, all plants were grown on vertically oriented square plates (Greiner Labortechnik, Austria) with solid medium derived from standard Murashige and Skoog medium under the same conditions. For the hypocotyl-elongation assay, plants were grown in the dark at 22° C. under the same conditions.
structure (smiles),measurement,setting,value
"C[C@@H]1C[C@@H]([C@H](O)CC2CC(=O)NC(=O)C2)C(=O)[C@@H](C)C1 [CHX, cycloheximide, reference compound]",expression of genes downstream of the BRI1 receptor,[1],able to induce some of these genes
"CC(C)C[C@@H](C=O)NC(=O)[C@H](CC(C)C)NC(=O)[C@H](CC(C)C)NC(=O)OCc1ccccc1 [MG132, Z-Leu-Leu-Leu-CHO, reference compound] (Cbz-Leu-Leu-Leu-aldehyde)",total amount of BES1 protein,[2]; MG132 treatment,an increase in the total amount of BES1
same,BES1 phosphorylation state,[2]; addition of BL or MG132,no shift in the ratio between the phosphorylated and the dephosphorylated form is observed
"O=C(O)CCC(=O)Nc1ccc(F)cn1 [fluoro derivative, 4-[(5-fluoro-2-pyridinyl)amino]-4-oxobutanoic acid]",effect on lateral root formation as indication of brassinosteroid like activity,[3],highest activity
